According to patent US8344113B2, “Diagnostic tumor markers, drug screening for tumorigenesis inhibition, and compositions and methods for treatment of cancer” (Minerva Biotechnologies Corporation, priority 2000, dated 2013):

Target: T1, MGFR portion of the MUC1 receptor (His-PSMGFR) and ligand(s) in T47D lysate (Homo sapiens, UniProt P15941, R1131P)
T1 construct: made in house; host or cells: chemical synthesis (synthetic peptide)
T1 sequence (P15941 with tags, fused parts or gaps R1131P): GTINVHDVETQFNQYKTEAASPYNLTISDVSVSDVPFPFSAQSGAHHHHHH
Assay: Colloid color-change ligand binding assay with or without enzyme inhibitor
Format: biochemical
Conditions: T47D lysate treated with inhibitor, final concentration 3 mM
Protocol: To test the hypothesis that the MGFR portion of the MUC1 receptor is enzymatically modified prior to binding to its ligand(s), the drug screening assay described in Example 5a was performed in the presence or absence of an enzyme inhibitor, PMSF (phenylmethylsulfonyl fluoride; Sigma chemical Co. St. Louis Mo., USA). T47D cells, which are breast tumor cells that aberrantly express MUC1, were grown to 70% confluency, treated with trypsin to detach from the flask, and pelleted by centrifugation. A lysate was prepared as follows from the pellets of two T75 flasks. Cell pellets were resuspended in 300 μL phosphate buffer (10 mM sodium phosphate, 100 mM NaCl, pH 7.4). The lysate was divided into two parts. One aliquot of lysate was used as is. To the second aliquot was added 9 μL of a 100 mM stock solution to achieve a final concentration 3 mM. The lysates were frozen and thawed four times with 15 seconds of vigorous mixing after each thawing. Lysates were then pelleted by centrifugation and the supernatant collected. Lysates were diluted by adding 6.2 ml of phosphate buffer. The drug screening assay was then performed as described in Example 5a, with the exception that no drugs were added. Rather the ability of the ligand(s) in the lysate to bind to the MGFR in a multimeric way, which would result in the solution color to change to blue, was tested. […]

## O=S(=O)(F)Cc1ccccc1 [PMSF, phenylmethylsulfonyl fluoride]
  Solution color change (ligand binding to His-PSMGFR colloids): did not change color and remained pink
